The values below come from patent publication US10669246B2, “Benzothiazol compounds and methods using the same for treating neurodegenerative disorders” (1ST Biotherapeutics, Inc., priority 2017, dated 2020).

Data set [1] concerns α-synuclein PFF induced PD mice. The data set can be described thus: Pole test in α-synuclein PFF induced PD mice. The data set is classed as in vivo.
Data set [2] concerns Aβ25-35 induced AD mice. The data set can be described thus: Step-through passive avoidance (STPA) test in Aβ25-35 induced AD mice. The data set is classed as in vivo. To be noted: orally once daily for 10 days; Example 4 1, 3 and 10 mg/kg, nilotinib 3 mg/kg.
For data set [3], the system named is Aβ25-35 induced AD mice. As to the kind of experiment: Lipid peroxidation in hippocampus homogenates of Aβ25-35 injected mice. The data set is classed as in vivo. The conditions noted are these: once daily oral dosing of 3 mg/kg and 10 mg/kg. An excerpt:
10 Days after ICV injection of oligomeric Aβ25-35 peptide, the hippocampus was dissected out. And lipid peroxidation level was quantified in the hippocampus homogenates. ICV injection of oligomeric Aβ25-35 peptide induced lipid peroxidation, a marker for oxidative stress. […] (FIG. 7)

The next data set can be described thus: in vivo. The conditions noted are these: male, ICR, mouse, po, 5 mg/kg.
The test system of data set [4] is PFF-induced neuronal toxicity. The data set can be described thus: PFF-induced neuronal toxicity. The conditions noted are these: dose: 0.5, 1, 5, 10, 100 nM. In kind it is cell-based.
Data set [5] can be described thus: Oral dose pharmacokinetic study in mice. The conditions noted are these: for brain exposure compared with nilotinib: oral 5 mg/kg.
The subject of data set [6] is Aβ25-35 induced AD mice. As to the kind of experiment: Y-maze spontaneous alternation in Aβ25-35 induced AD mice. The data set is classed as in vivo. The conditions noted are these: orally once daily for 10 days; Example 4 1, 3 and 10 mg/kg, nilotinib 3 mg/kg. An excerpt: Y-maze test as a behavioral test was used to assess memory function and the willingness of rodents to explore new environments ICV injection of oligomeric Aβ25-35 peptide triggered neurotoxic effects and behavioral deficit in Y-maze test evaluating short term memory, by measurement of spontaneous alternation, while any change of motor symptom was not observed by measurement of locomotion.

The test system of data set [7] is Phosphorylation of α-synuclein at ser129. The data set can be described thus: Phosphorylation of α-synuclein in α-synuclein PFF induced PD model. The data set is classed as in vivo, mice. The conditions noted are these: q.d.; for reduction of phosphorylation of α-synuclein at ser129: oral.
Data set [8] has as its system α-synuclein PFF-induced pathologic aggregation (Lewy body-like pathology). As to the kind of experiment: α-synuclein PFF-induced pathologic aggregation. In kind it is cell-based.
A further data set addresses hERG (Homo sapiens (Human), UniProt Q12809). As to the kind of experiment: hERG activity.
The target in another data set is Recombinant human c-Kit (Homo sapiens (Human), UniProt P10721). As to the kind of experiment: c-KIT kinase assay (ADP-Glo). In kind it is biochemical. The conditions noted are these: Table 3, kinase selectivity. How it is done: ADP-Glo assay kit was purchased from Promega. Magnesium chloride (MgCl2), Manganese(II) chloride (MnCl2), Bovine serum albumin (BSA) and dimethylsulfoxide (DMSO) were purchased from Sigma-Aldrich. Tris-HCl buffer was purchased from Biosesang. c-Kit kinase and Poly (4:1 Glu, Tyr) Peptide were purchased from Signalchem.
c-Kit kinase activity was measured by Promega's ADP-Glo™ Assay.

Setting [9] is: 10 mg/kg orally once daily for 5 months.

pIC50: −log10 of the molar value.

Sequence of Recombinant human c-Kit (P10721 26-976): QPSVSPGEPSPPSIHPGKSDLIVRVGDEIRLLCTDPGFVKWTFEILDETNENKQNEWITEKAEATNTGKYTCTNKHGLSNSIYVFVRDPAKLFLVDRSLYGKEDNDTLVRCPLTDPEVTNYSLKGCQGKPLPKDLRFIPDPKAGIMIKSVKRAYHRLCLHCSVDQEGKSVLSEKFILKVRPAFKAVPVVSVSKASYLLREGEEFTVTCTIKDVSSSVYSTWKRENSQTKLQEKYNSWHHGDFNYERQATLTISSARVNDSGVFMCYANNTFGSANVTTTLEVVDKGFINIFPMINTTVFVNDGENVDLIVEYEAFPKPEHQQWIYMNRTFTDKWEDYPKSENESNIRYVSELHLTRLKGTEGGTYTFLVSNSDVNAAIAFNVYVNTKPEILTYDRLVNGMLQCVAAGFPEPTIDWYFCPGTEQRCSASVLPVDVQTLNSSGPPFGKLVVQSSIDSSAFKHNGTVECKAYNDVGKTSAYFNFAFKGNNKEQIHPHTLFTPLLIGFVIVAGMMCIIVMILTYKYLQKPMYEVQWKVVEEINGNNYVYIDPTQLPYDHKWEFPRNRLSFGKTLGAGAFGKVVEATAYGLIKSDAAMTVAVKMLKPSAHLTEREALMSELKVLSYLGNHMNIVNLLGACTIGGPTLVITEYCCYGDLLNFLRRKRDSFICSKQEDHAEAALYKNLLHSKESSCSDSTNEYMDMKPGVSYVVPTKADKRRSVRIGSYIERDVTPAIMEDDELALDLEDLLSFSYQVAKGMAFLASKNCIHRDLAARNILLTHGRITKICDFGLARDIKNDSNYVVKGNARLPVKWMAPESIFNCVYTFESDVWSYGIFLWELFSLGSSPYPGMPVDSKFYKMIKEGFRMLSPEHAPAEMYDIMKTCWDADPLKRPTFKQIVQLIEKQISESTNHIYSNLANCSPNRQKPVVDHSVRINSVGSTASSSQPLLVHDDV
Sequence of hERG (Q12809 whole entry): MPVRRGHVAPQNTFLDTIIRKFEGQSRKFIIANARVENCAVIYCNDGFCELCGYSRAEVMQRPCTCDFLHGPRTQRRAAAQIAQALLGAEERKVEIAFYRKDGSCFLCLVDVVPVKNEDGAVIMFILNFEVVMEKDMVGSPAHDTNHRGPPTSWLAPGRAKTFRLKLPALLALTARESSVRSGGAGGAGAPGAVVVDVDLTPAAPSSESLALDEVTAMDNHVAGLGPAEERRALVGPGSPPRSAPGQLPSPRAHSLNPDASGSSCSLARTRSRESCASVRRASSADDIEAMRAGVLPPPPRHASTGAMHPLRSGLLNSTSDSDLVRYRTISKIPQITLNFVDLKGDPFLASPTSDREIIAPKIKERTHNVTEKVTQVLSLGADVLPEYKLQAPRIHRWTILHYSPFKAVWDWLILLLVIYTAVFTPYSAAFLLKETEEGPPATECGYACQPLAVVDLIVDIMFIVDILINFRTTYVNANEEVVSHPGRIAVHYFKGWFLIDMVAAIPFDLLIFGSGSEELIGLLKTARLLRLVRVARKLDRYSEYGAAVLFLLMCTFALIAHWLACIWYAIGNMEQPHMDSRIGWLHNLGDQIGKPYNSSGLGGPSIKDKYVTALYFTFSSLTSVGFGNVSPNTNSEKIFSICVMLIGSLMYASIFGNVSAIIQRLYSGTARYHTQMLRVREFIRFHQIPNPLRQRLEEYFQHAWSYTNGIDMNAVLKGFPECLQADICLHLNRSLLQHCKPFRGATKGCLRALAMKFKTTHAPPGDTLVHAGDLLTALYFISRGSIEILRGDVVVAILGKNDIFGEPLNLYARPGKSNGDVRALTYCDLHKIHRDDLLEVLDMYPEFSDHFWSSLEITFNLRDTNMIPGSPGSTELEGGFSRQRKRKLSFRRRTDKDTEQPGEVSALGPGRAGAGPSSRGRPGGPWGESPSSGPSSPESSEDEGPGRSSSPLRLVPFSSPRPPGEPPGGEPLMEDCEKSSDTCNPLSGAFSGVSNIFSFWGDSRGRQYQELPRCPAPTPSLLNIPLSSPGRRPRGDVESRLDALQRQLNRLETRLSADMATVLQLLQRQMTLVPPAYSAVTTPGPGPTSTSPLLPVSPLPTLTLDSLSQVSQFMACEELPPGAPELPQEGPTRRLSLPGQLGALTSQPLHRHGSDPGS

`Cc1ccncc1-c1ccc2nc(NC(=O)[C@@H]3C[C@@H]3F)sc2c1` [Example 4, (1S,2S)-2-fluoro-N-(6-(4-methylpyridin-3-yl)benzo[d]thiazol-2-yl)cyclopropane-1-carboxamide]: in data set [1] (0.3 mg/kg orally once daily for 5 months), the “improvement of pole climb down time” value is given as 50%. Also, the “pole climb down time” value in [1] (setting [9]) is on record as “completely recovered”. Moreover, the “pole climb down time” value in [1] (0.3, 1, 3 and 10 mg/kg orally once daily for 5 months) is listed as “recovered by treatment of Example 4 in a dose-dependent manner”. Also, the “contextual long-term memory deficits” value with Aβ25-35 induced AD mice [2] is “very significantly and fully alleviated”. Also, in the data set with Aβ25-35 induced AD mice [3], the “lipid peroxidation (oxidative stress marker) in hippocampus” value was “completely inhibited”. This compound also had an AUC(0-inf) in “in vivo” (brain) of 4140 ng·h/mL. In addition, in the data set “in vivo” (plasma), the AUC(0-inf) is 11400 ng·h/mL, the Cmax was determined as 3590 ng/mL and the Tmax was 30 min. Further, the PFF-induced neuronal toxicity entry in [4] was “inhibited PFF-induced neuronal toxicity in a dose dependent manner”. Further, in [5], the PK profile result is reported as “good PK profiles” and the “brain exposure compared with nilotinib” value was “better brain exposure than nilotinib”. Besides, the AUCINF in data set [5] (PO 5 mg/kg, Table 5) was found to be 682041.7 ng·min/mL. Besides, in the data set with Aβ25-35 induced AD mice [6], the “deficits of alternation behavior (spatial working memory)” value is “very significantly and fully alleviated”. In addition, the “reduction of phosphorylation of α-synuclein at ser129” value in [7] (3 mg/kg) is given as “about 50%”. In addition, in data set [7] (10 mg/kg), the “reduction of phosphorylation of α-synuclein at ser129” value is given as about 80%. The “α-synuclein PFF-induced pathologic aggregation (Lewy body-like pathology)” value in [8] is reported as “decreased”.

Regarding `Cc1ccncc1-c1ccc2nc(NC(=O)C3CC3)sc2c1` [Example 5, N-(6-(4-methylpyridin-3-yl)benzo[d]thiazol-2-yl)cyclopropanecarboxamide], the area under the curve AUC(0-inf) was 1980 ng·h/mL in “in vivo” (brain) and 8480 ng·h/mL in the data set “in vivo” (plasma).

Turning to `Cc1ccncc1-c1ccc2sc(NC(=O)[C@@H]3C[C@@H]3F)nc2c1` [Example 6, (1S,2S)-2-fluoro-N-(5-(4-methylpyridin-3-yl)benzo[d]thiazol-2-yl)cyclopropane-1-carboxamide], the AUC(0-inf) in the data set “in vivo” (brain) was 3950 ng·h/mL; in “in vivo” (plasma), 4860 ng·h/mL. The partition ratio (Kp) in “in vivo” (brain/plasma) came to 0.5.

Regarding `Cc1c(F)cncc1-c1ccc2nc(NC(=O)[C@@H]3C[C@@H]3F)sc2c1` [Example 8, (1S,2S)-2-fluoro-N-(6-(5-fluoro-4-methylpyridin-3-yl)benzo[d]thiazol-2-yl)cyclopropane-1-carboxamide], in the data set “in vivo” (plasma), the Cmax was determined as 4170 ng/mL and the Tmax was 60 min. In data set [5], the PK profile result is on record as “good PK profiles” and the “brain exposure compared with nilotinib” value is “better brain exposure than nilotinib”. Also, the inhibition at 10 µM on hERG worked out at 12.6%.

Consider `Cc1ccc(O)cc1-c1ccc2nc(NC(=O)[C@@H]3C[C@@H]3F)sc2c1` [Example 14, (1S,2S)-2-fluoro-N-(6-(5-hydroxy-2-methylphenyl)benzo[d]thiazol-2-yl)cyclopropane-1-carboxamide], for which, at Recombinant human c-Kit, the pIC50 is 5.87.

For `C=C(C)c1ccc(C)c(-c2ccc3nc(NC(=O)[C@@H]4C[C@@H]4F)sc3c2)c1` [Example 17, (1S,2S)-2-fluoro-N-(6-(2-methyl-5-(prop-1-en-2-yl)phenyl)benzo[d]thiazol-2-yl)cyclopropane-1-carboxamide], at Recombinant human c-Kit, the pIC50 is under 5.00.

On to `Cc1c(O)cccc1-c1ccc2nc(NC(=O)[C@@H]3C[C@@H]3F)sc2c1` [Example 22, (1S,2S)-2-fluoro-N-(6-(3-hydroxy-2-methylphenyl)benzo[d]thiazol-2-yl)cyclopropane-1-carboxamide], for which, on Recombinant human c-Kit, the pIC50 is 5.99.

Take `Cc1cn(-c2cc(NC(=O)c3ccc(C)c(Nc4nccc(-c5cccnc5)n4)c3)cc(C(F)(F)F)c2)cn1` [Nilotinib, nilotinib, reference compound]: in data set [1] (setting [9]), the “pole climb down time” value is on record as “just a slight improvement”. Moreover, the “contextual long-term memory deficits” value in the data set with Aβ25-35 induced AD mice [2] is given as “no significant effect”. Further, in the data set on Aβ25-35 induced AD mice [6], the “deficits of alternation behavior (spatial working memory)” value is “partially alleviated”. The “effect on phosphorylation of α-synuclein” value in data set [7] (3 and 10 mg/kg) was “not effective”.
